Where two headings read alike, the source gives them in different places.
Experiments:
human orexin-1 receptor = human orexin-1 receptor (Homo sapiens (Human), UniProt O43613); test: In vitro assay: intracellular calcium measurements (FLIPR), antagonistic activity; format: cell-based; conditions: CHO cells, 3 nM orexin-A, marked values are geometric means of n = 2-6, read-out: IC50 OX1
human orexin-2 receptor = human orexin-2 receptor (Homo sapiens (Human), UniProt O43614); test: as above; format: cell-based; conditions: CHO cells, 3 nM orexin-A, marked values are geometric means of n = 2-6, read-out: IC50 OX2
[1] = compound incubation time of 10 min

Sequence of human orexin-2 receptor (O43614 whole entry): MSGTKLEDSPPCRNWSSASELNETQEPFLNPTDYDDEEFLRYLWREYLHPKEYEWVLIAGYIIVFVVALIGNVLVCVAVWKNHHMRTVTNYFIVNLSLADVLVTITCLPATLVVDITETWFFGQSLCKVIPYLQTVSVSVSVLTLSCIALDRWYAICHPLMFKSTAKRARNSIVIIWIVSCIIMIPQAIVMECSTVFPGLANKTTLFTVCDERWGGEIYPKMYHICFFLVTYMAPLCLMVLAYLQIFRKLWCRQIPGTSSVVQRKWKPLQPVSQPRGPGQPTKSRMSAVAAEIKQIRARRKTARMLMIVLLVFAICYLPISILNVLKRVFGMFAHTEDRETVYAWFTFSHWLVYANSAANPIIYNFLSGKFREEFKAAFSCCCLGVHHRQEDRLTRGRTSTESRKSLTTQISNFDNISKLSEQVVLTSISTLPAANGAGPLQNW
Sequence of human orexin-1 receptor (O43613 whole entry): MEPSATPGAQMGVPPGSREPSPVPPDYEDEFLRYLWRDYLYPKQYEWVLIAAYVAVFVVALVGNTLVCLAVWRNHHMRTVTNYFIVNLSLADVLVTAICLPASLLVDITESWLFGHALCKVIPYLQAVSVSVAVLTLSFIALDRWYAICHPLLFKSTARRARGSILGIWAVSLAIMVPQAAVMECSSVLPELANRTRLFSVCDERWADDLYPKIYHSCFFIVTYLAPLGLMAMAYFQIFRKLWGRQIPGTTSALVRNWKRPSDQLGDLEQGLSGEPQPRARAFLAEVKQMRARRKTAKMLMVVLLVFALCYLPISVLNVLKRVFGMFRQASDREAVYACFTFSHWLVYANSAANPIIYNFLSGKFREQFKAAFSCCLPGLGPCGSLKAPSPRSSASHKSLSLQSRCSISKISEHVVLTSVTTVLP

SMILES	IC50 (human orexin-1 receptor; [1])	IC50 (human orexin-2 receptor; [1])	IC50 (human orexin-1 receptor; compound incubation 120 min)	IC50 (human orexin-2 receptor; compound incubation 120 min)
COc1cccc(OC)c1C1CCCC(=O)N1Cc1cn2ccccc2n1 (stereo not shown) [Example 242, 6-(2,6-dimethoxyphenyl)-1-(imidazo[1,2-a]pyridin-2-ylmethyl)piperidin-2-one]	17700 nM	1390 nM	–	–
COc1cccc(OC)c1C1CCCC(=O)N1Cc1ccc2c(c1)nnn2C (stereo not shown) [Example 243, 6-(2,6-dimethoxyphenyl)-1-((1-methyl-1H-benzo[d][1,2,3]triazol-5-yl)methyl)piperidin-2-one]	10100 nM	311 nM	–	–
COc1cccc(OC)c1C1CCCC(=O)N1Cc1ccc(-c2ccccc2)cc1 (stereo not shown) [Example 244, 1-([1,1′-biphenyl]-4-ylmethyl)-6-(2,6-dimethoxyphenyl)piperidin-2-one]	1090 nM	72 nM	–	–
COc1cccc(OC)c1C1CCCC(=O)N1Cc1ccc(N2CCCC2)cc1 (stereo not shown) [Example 245, 6-(2,6-dimethoxyphenyl)-1-(4-(pyrrolidin-1-yl)benzyl)piperidin-2-one]	1070 nM	132 nM	–	–
COc1cccc(OC)c1C1CCCC(=O)N1Cc1ccc(OCC(F)(F)F)cc1 (stereo not shown) [Example 246, 6-(2,6-dimethoxyphenyl)-1-(4-(2,2,2-trifluoroethoxy)benzyl)piperidin-2-one]	665 nM	11 nM	–	–
COc1cccc(OC)c1C1CCCC(=O)N1Cc1cc2ccccc2n1C (stereo not shown) [Example 247, 6-(2,6-dimethoxyphenyl)-1-((1-methyl-1H-indol-2-yl)methyl)piperidin-2-one]	132 nM	41 nM	–	–
COc1cccc(OC)c1C1CCCC(=O)N1Cc1ccc(S(C)(=O)=O)cc1 (stereo not shown) [Example 248, 6-(2,6-dimethoxyphenyl)-1-(4-(methylsulfonyl)benzyl)piperidin-2-one]	7250 nM	1710 nM	–	–
COc1cccc(OC)c1C1CCCC(=O)N1Cc1ccc2oc(C)nc2c1 (stereo not shown) [Example 249, 6-(2,6-dimethoxyphenyl)-1-((2-methylbenzo[d]oxazol-5-yl)methyl)piperidin-2-one]	–	–	334 nM	223 nM
COc1cccc(OC)c1C1CCCC(=O)N1Cc1ccc2sccc2c1 (stereo not shown) [Example 250, 1-(benzo[b]thiophen-5-ylmethyl)-6-(2,6-dimethoxyphenyl)piperidin-2-one]	204 nM	140 nM	–	–
CCOc1ccccc1C1CCCC(=O)N1Cc1ccc(OC(F)(F)F)cc1 (stereo not shown) [Example 251, 6-(2-ethoxyphenyl)-1-(4-(trifluoromethoxy)benzyl)piperidin-2-one]	4070 nM	426 nM	–	–
O=C1CCCC(c2ccccc2OC(F)(F)F)N1Cc1ccc(OC(F)(F)F)cc1 (stereo not shown) [Example 252, 1-(4-(trifluoromethoxy)benzyl)-6-(2-(trifluoromethoxy)phenyl)piperidin-2-one]	9370 nM	2660 nM	–	–
COc1cccc(OC)c1C1CC(F)(F)C(=O)N1Cc1ccc(OC(F)(F)F)cc1 (stereo not shown) [Example 256, 5-(2,6-dimethoxyphenyl)-3,3-difluoro-1-(4-(trifluoromethoxy)benzyl)pyrrolidin-2-one]	193 nM	133 nM	–	–
COc1cccc(OC)c1C1COCC(=O)N1Cc1ccc(OC(F)(F)F)cc1 (stereo not shown) [Example 266, 5-(2,6-dimethoxyphenyl)-4-(4-(trifluoromethoxy)benzyl)morpholin-3-one]	412 nM	86 nM	–	–
COc1cccc(OC)c1C1CNCC(=O)N1Cc1ccc(OC(F)(F)F)cc1 (stereo not shown) [Example 267, 6-(2,6-dimethoxyphenyl)-1-(4-(trifluoromethoxy)benzyl)piperazin-2-one]	2680 nM	589 nM	–	–
COc1cccc(OC)c1C1CN(C)CC(=O)N1Cc1ccc(OC(F)(F)F)cc1 (stereo not shown) [Example 268, 6-(2,6-dimethoxyphenyl)-4-methyl-1-(4-(trifluoromethoxy)benzyl)piperazin-2-one]	1270 nM	410 nM	–	–
COc1ncnc(OC)c1C1CCCC(=O)N1Cc1cccc(-c2csc(C)n2)c1 (stereo not shown) [Example 269, 6-(4,6-dimethoxypyrimidin-5-yl)-1-(3-(2-methylthiazol-4-yl)benzyl)piperidin-2-one]	–	–	1030 nM	619 nM
COc1ncnc(OC)c1C1CCCC(=O)N1Cc1cccc(-c2ccccc2)c1 (stereo not shown) [Example 270, 1-([1,1′-biphenyl]-3-ylmethyl)-6-(4,6-dimethoxypyrimidin-5-yl)piperidin-2-one]	–	–	568 nM	412 nM
COc1ncnc(OC)c1C1CCCC(=O)N1Cc1csc(-c2ccccc2)n1 (stereo not shown) [Example 271, 6-(4,6-dimethoxypyrimidin-5-yl)-1-((2-phenylthiazol-4-yl)methyl)piperidin-2-one]	–	–	5690 nM	256 nM
Cc1nc(-c2cccc(CN3C(=O)CCCC3c3cccc4c3OCCO4)c2)cs1 (stereo not shown) [Example 272, 6-(2,3-dihydrobenzo[b][1,4]dioxin-5-yl)-1-(3-(2-methylthiazol-4-yl)benzyl)piperidin-2-one]	–	–	510 nM	229 nM

SMILES	IC50 (human orexin-1 receptor; [1])	IC50 (human orexin-2 receptor; [1])	IC50 (human orexin-1 receptor; compound incubation 120 min)	IC50 (human orexin-2 receptor; compound incubation 120 min)
O=C1CCCC(c2cccc3c2OCCO3)N1Cc1cccc(-c2ccccc2)c1 (stereo not shown) [Example 273, 1-([1,1′-biphenyl]-3-ylmethyl)-6-(2,3-dihydrobenzo[b][1,4]dioxin-5-yl)piperidin-2-one]	–	–	795 nM	296 nM
COc1cncc(OC)c1C1CCCCC(=O)N1Cc1cccc(-c2csc(C)n2)c1 (stereo not shown) [Example 274, 7-(3,5-dimethoxypyridin-4-yl)-1-(3-(2-methylthiazol-4-yl)benzyl)azepan-2-one]	–	–	23 nM	64 nM
COc1cncc(OC)c1C1CCCCC(=O)N1Cc1cccc(-c2ccccc2)c1 (stereo not shown) [Example 275, 1-([1,1′-biphenyl]-3-ylmethyl)-7-(3,5-dimethoxypyridin-4-yl)azepan-2-one]	–	–	50 nM	80 nM
COc1cncc(OC)c1C1CCCCC(=O)N1Cc1ccc2c(c1)c1ccccc1n2C (stereo not shown) [Example 276, 7-(3,5-dimethoxypyridin-4-yl)-1-((9-methyl-9H-carbazol-3-yl)methyl)azepan-2-one]	–	–	347 nM	222 nM
COc1cncc(OC)c1C1CCCCC(=O)N1Cc1csc(-c2ccccc2)n1 (stereo not shown) [Example 277, 7-(3,5-dimethoxypyridin-4-yl)-1-((2-phenylthiazol-4-yl)methyl)azepan-2-one]	–	–	214 nM	182 nM
COc1cccc(OC)c1C1CCCC(=O)N1Cc1csc(Oc2ccccc2)n1 (stereo not shown) [Example 278, 6-(2,6-dimethoxyphenyl)-1-((2-phenoxythiazol-4-yl)methyl)piperidin-2-one]	–	–	250 nM	172 nM
COc1ccc2nc(C)oc2c1C1CCCC(=O)N1Cc1ccc2ccccc2n1 (stereo not shown) [Example 279, 6-(6-methoxy-2-methylbenzo[d]oxazol-7-yl)-1-(quinolin-2-ylmethyl)piperidin-2-one]	–	–	623 nM	1030 nM
COc1ccc2ncoc2c1C1CCCC(=O)N1Cc1ccc2ccccc2n1 (stereo not shown) [Example 280, 6-(6-methoxybenzo[d]oxazol-7-yl)-1-(quinolin-2-ylmethyl)piperidin-2-one]	–	–	1820 nM	1800 nM
COc1ccc(Cl)c(OC)c1C1CCCC(=O)N1Cc1cccc(-c2csc(C)n2)c1 (stereo not shown) [Example 281, 6-(3-chloro-2,6-dimethoxyphenyl)-1-(3-(2-methylthiazol-4-yl)benzyl)piperidin-2-one]	–	–	42 nM	115 nM
COc1cccc(OC)c1C1CCC(=O)N1Cc1ccc(Oc2nccs2)cc1 (stereo not shown) [Example 282, 5-(2,6-dimethoxyphenyl)-1-(4-(thiazol-2-yloxy)benzyl)pyrrolidin-2-one]	–	–	139 nM	213 nM
Cc1nc(-c2cccc(CN3C(=O)CCCC3c3ccccc3-c3ccccc3)c2)cs1 (stereo not shown) [Example 283, 6-([1,1′-biphenyl]-2-yl)-1-(3-(2-methylthiazol-4-yl)benzyl)piperidin-2-one]	–	–	275 nM	548 nM
O=C1CCCC(c2ccccc2-c2ccccc2)N1Cc1cccc(-c2ccccc2)c1 (stereo not shown) [Example 284, 6-([1,1′-biphenyl]-2-yl)-1-([1,1′-biphenyl]-3-ylmethyl)piperidin-2-one]	–	–	1450 nM	722 nM
O=C1CCC(c2ccccc2-c2ccccc2)N1Cc1cccc(-c2ccccc2)c1 (stereo not shown) [Example 285, 5-([1,1′-biphenyl]-2-yl)-1-([1,1′-biphenyl]-3-ylmethyl)pyrrolidin-2-one]	–	–	243 nM	533 nM
Cc1nc(-c2cccc(CN3C(=O)CCC3c3ccccc3-c3ccccc3)c2)cs1 (stereo not shown) [Example 286, 5-([1,1′-biphenyl]-2-yl)-1-(3-(2-methylthiazol-4-yl)benzyl)pyrrolidin-2-one]	–	–	104 nM	462 nM
O=C1CCC(c2ccccc2-c2ccccc2)N1Cc1ccc(OC(F)(F)F)cc1 (stereo not shown) [Example 287, 5-([1,1′-biphenyl]-2-yl)-1-(4-(trifluoromethoxy)benzyl)pyrrolidin-2-one]	–	–	922 nM	585 nM
O=C1CCC(c2ccccc2-c2ccccc2)N1Cc1csc(-c2ccccc2)n1 (stereo not shown) [Example 288, 5-([1,1′-biphenyl]-2-yl)-1-((2-phenylthiazol-4-yl)methyl)pyrrolidin-2-one]	–	–	825 nM	1370 nM
CC1CC(c2ccccc2-c2ccccc2)N(Cc2cccc(-c3ccccc3)c2)C1=O (stereo not shown) [Example 289, 5-([1,1′-biphenyl]-2-yl)-1-([1,1′-biphenyl]-3-ylmethyl)-3-methylpyrrolidin-2-one]	–	–	420 nM	596 nM
Cc1nc(-c2cccc(CN3C(=O)C(C)CC3c3ccccc3-c3ccccc3)c2)cs1 (stereo not shown) [Example 290, 5-([1,1′-biphenyl]-2-yl)-3-methyl-1-(3-(2-methylthiazol-4-yl)benzyl)pyrrolidin-2-one]	–	–	103 nM	455 nM
CC1CC(c2ccccc2-c2ccccc2)N(Cc2ccc(OC(F)(F)F)cc2)C1=O (stereo not shown) [Example 291, 5-([1,1′-biphenyl]-2-yl)-3-methyl-1-(4-(trifluoromethoxy)benzyl)pyrrolidin-2-one]	–	–	2050 nM	457 nM
